# According to US20260297118A1, “SUBSTITUTED PYRIMIDINONE AND AZAPYRIMIDINONE COMPOUNDS, COMPOSITIONS, AND USES THEREOF” (LAKEWOOD AMEDEX, INC., priority 2023, published 2026):
# Assays:
# Type in all cases: cell-based
# E. coli MMX-8870 = assay: MIC, broth microdilution, E. coli MMX-8870; details: E. coli MMX-8870, Gram −ve; pH 3; 18 to 24 hours
# Protocol: (§1) MIC testing is conducted using the broth (Mueller Hinton Broth) microdilution procedures relevant to each organism group as established by the Clinical and Laboratory Standards Institute (CLSI; 3-7). MIC plates are prepared in accordance with CLSI (3-7). To prepare the test plates, automated liquid handlers are used to conduct serial dilutions and liquid transfers. Automated liquid handlers utilized in this study include the Multidrop 384 (Labsystems, Helsinki, Finland) and the Biomek 2000 (Beckman Coulter, Fullerton CA). The solution is diluted to desired pH using 1 M Citric Acid or 1 M NaOH buffer. A standardized inoculum of each test organism is prepared per CLSI methods (3, 5-7) to equal a 0.5 McFarland standard in the appropriate media followed by an additional 1:20 dilution (1:10 for anaerobes).
# (§2) The plates are then inoculated with 10 μL of the diluted 0.5 McFarland suspension using the Biomek 2000 from low to high drug concentration, resulting in a final concentration of approximately 5×10^5 CFU/mL per well. An un-inoculated plate is incubated for the purpose of assessing solubility of the drug in the test media. The plates are stacked 3 to 4 high, covered with a sterile lid on the top plate, and incubated for 18 to 24 hours according to CLSI. The MIC is recorded as the lowest concentration of respective compound that inhibited visible growth of the organism.
# Candida albicans (22972) = assay: MIC, broth microdilution, Candida albicans (22972); details: pH 3, Mueller Hinton Broth, 18 to 24 hours, read-out: MIC
# Protocol: as §1, §2
# [1] = tested on: Staphylococcus aureus (43330); assay: MIC, broth microdilution, Staphylococcus aureus (43330); details: pH 3, Mueller Hinton Broth, 18 to 24 hours, read-out: MIC
# Protocol: as §1, §2
# E. faecium MMX-3355 = assay: MIC, broth microdilution, E. faecium MMX-3355; design: unit not given beside the values; details: E. faecium MMX-3355, Gram +ve; pH 3; 18 to 24 hours
# Protocol: as §1, §2
# [2] = tested on: S. saprophyticus ATCC-49907; assay: MIC, broth microdilution, S. saprophyticus ATCC-49907; design: unit not given beside the values; details: S. saprophyticus ATCC-49907, Gram +ve; pH 3; 18 to 24 hours
# Protocol: as §1, §2
# [3] = tested on: S. haemolyticus ATCC-29970; assay: MIC, broth microdilution, S. haemolyticus ATCC-29970; details: S. haemolyticus ATCC-29970, Gram +ve; pH 3; 18 to 24 hours
# Protocol: as §1, §2
# S. aureus ATCC-29213 = assay: MIC, broth microdilution, S. aureus ATCC-29213; design: unit not given beside the values; details: S. aureus ATCC-29213, Gram +ve; pH 3; 18 to 24 hours
# Protocol: as §1, §2
# E. faecalis MMX-3353 = assay: MIC, broth microdilution, E. faecalis MMX-3353; details: E. faecalis MMX-3353, Gram +ve; pH 3; 18 to 24 hours
# Protocol: as §1, §2
# C. freundii CDC-0157 = assay: MIC, broth microdilution, C. freundii CDC-0157; design: unit not given beside the values; details: C. freundii CDC-0157, Gram −ve; pH 3; 18 to 24 hours
# Protocol: as §1, §2
# E. faecalis ATCC-29212 = assay: MIC, broth microdilution, E. faecalis ATCC-29212; design: unit not given beside the values; details: E. faecalis ATCC-29212, Gram +ve; pH 3; 18 to 24 hours
# Protocol: as §1, §2
# P. aeruginosa ATCC-27853 = assay: MIC, broth microdilution, P. aeruginosa ATCC-27853; design: unit not given beside the values; details: P. aeruginosa ATCC-27853, Gram −ve; pH 3; 18 to 24 hours
# Protocol: as §1, §2
# S. pyogenes ATCC-49399 = assay: MIC, broth microdilution, S. pyogenes ATCC-49399; design: unit not given beside the values; details: S. pyogenes ATCC-49399, Gram +ve; pH 3; 18 to 24 hours
# Protocol: as §1, §2
# [4] = tested on: K. pneumoniae ATCC BAA-2146; assay: MIC, broth microdilution, K. pneumoniae ATCC BAA-2146; design: unit not given beside the values; details: K. pneumoniae ATCC BAA-2146, Gram −ve; pH 3; 18 to 24 hours
# Protocol: as §1, §2
# S. aureus ATCC -3591 = assay: MIC, broth microdilution, S. aureus ATCC -3591; design: unit not given beside the values; details: S. aureus ATCC -3591, Gram +ve; pH 3; 18 to 24 hours
# Protocol: as §1, §2
# A. baumannii ATCC-19606 = assay: MIC, broth microdilution, A. baumannii ATCC-19606; design: unit not given beside the values; details: A. baumannii ATCC-19606, Gram −ve; pH 3; 18 to 24 hours
# Protocol: as §1, §2
# S. agalactiae ATCC-13813 = assay: MIC, broth microdilution, S. agalactiae ATCC-13813; design: unit not given beside the values; details: S. agalactiae ATCC-13813, Gram +ve; pH 3; 18 to 24 hours
# Protocol: as §1, §2
# [5] = tested on: S. dysgalactiae ATCC-6644; assay: MIC, broth microdilution, S. dysgalactiae ATCC-6644; design: unit not given beside the values; details: S. dysgalactiae ATCC-6644, Gram +ve; pH 3; 18 to 24 hours
# Protocol: as §1, §2
# E. coli ATCC-25922 = assay: MIC, broth microdilution, E. coli ATCC-25922; design: unit not given beside the values; details: E. coli ATCC-25922, Gram −ve; pH 3; 18 to 24 hours
# Protocol: as §1, §2
# C. striatum ATCC-6940 = assay: MIC, broth microdilution, C. striatum ATCC-6940; details: C. striatum ATCC-6940, Gram +ve; pH 3; 18 to 24 hours
# Protocol: as §1, §2
# H. influenzae ATCC-49247 = assay: MIC, broth microdilution, H. influenzae ATCC-49247; design: unit not given beside the values; details: H. influenzae ATCC-49247, Gram −ve; pH 3; 18 to 24 hours
# Protocol: as §1, §2
# K. pneumoniae ATCC-43816 = assay: MIC, broth microdilution, K. pneumoniae ATCC-43816; design: unit not given beside the values; details: K. pneumoniae ATCC-43816, Gram −ve; pH 3; 18 to 24 hours
# Protocol: as §1, §2
# Escherichia coli (25922) = assay: MIC, broth microdilution, Escherichia coli (25922); details: pH 3, Mueller Hinton Broth, 18 to 24 hours, read-out: MIC
# Protocol: as §1, §2
# E. cloacae ATCC BAA-2468 = assay: MIC, broth microdilution, E. cloacae ATCC BAA-2468; design: unit not given beside the values; details: E. cloacae ATCC BAA-2468, Gram −ve; pH 3; 18 to 24 hours
# Protocol: as §1, §2
# [6] = tested on: Pseudomonas aeruginosa (27853); assay: MIC, broth microdilution, Pseudomonas aeruginosa (27853); details: pH 3, Mueller Hinton Broth, 18 to 24 hours, read-out: MIC
# Protocol: as §1, §2
# [7] = tested on: A. radioresistens MMX-8551; assay: MIC, broth microdilution, A. radioresistens MMX-8551; design: unit not given beside the values; details: A. radioresistens MMX-8551, Gram −ve; pH 3; 18 to 24 hours
# Protocol: as §1, §2
# M. morganii CDC-0519 = assay: MIC, broth microdilution, M. morganii CDC-0519; design: unit not given beside the values; details: M. morganii CDC-0519, Gram −ve; pH 3; 18 to 24 hours
# Protocol: as §1, §2
# E. faecium ATCC-35667 = assay: MIC, broth microdilution, E. faecium ATCC-35667; details: E. faecium ATCC-35667, Gram +ve; pH 3; 18 to 24 hours
# Protocol: as §1, §2
# P. mirabilis CDC-0155 = assay: MIC, broth microdilution, P. mirabilis CDC-0155; design: unit not given beside the values; details: P. mirabilis CDC-0155, Gram −ve; pH 3; 18 to 24 hours
# Protocol: as §1, §2
compound,measurement,setting,value
"CCCCOP(=O)(O)OC[C@H]1O[C@@H](n2ccc(N(C)C)nc2=O)C[C@@H]1O [LAI-008, butyl (((2R,3S,5R)-5-(4-(N,N-dimethylamino)-2-oxopyrimidin-1(2H)-yl)-3-hydroxytetrahydrofuran-2-yl)methyl) hydrogen phosphate]",MIC,E. coli MMX-8870,12.50
same,MIC,Candida albicans (22972),50000 µg/mL
same,MIC,[1],25000 µg/mL
same,MIC,E. faecium MMX-3355,3.13
same,MIC,[2],3.13
same,MIC,[3],0.39
same,MIC,S. aureus ATCC-29213,1.56
same,MIC,E. faecalis MMX-3353,6.25
same,MIC,C. freundii CDC-0157,3.13
same,MIC,E. faecalis ATCC-29212,3.13
same,MIC,P. aeruginosa ATCC-27853,5.63
same,MIC,S. pyogenes ATCC-49399,3.12
same,MIC,[4],12.50
same,MIC,S. aureus ATCC -3591,6.25
same,MIC,A. baumannii ATCC-19606,12.50
same,MIC,S. agalactiae ATCC-13813,3.12
same,MIC,[5],3.12
same,MIC,E. coli ATCC-25922,6.25
same,MIC,C. striatum ATCC-6940,3.12
same,MIC,H. influenzae ATCC-49247,0.78
same,MIC,K. pneumoniae ATCC-43816,12.50
same,MIC,Escherichia coli (25922),1000 µg/mL
same,MIC,E. cloacae ATCC BAA-2468,12.50
same,MIC,[6],5000 µg/mL
same,MIC,[7],12.50
same,MIC,M. morganii CDC-0519,3.13
same,MIC,E. faecium ATCC-35667,3.13
same,MIC,P. mirabilis CDC-0155,3.13
"CCCCOP(=O)(O)OC[C@H]1O[C@@H](n2ccc(N(C)C)nc2=O)[C@H](OC)[C@@H]1O [LAK-021, (2R,3S,4R,5R)-5-(4-N,N-dimethylamino-2-oxopyrimidin-1(2H)-yl)-3-hydroxy-4-methoxy-tetrahydrofuran-2-methyl butyl phosphate]",MIC,E. coli MMX-8870,1.56
same,MIC,Candida albicans (22972),> 50000 µg/mL
same,MIC,[1],4500 µg/mL
same,MIC,E. faecium MMX-3355,3.13
same,MIC,[2],1.56
same,MIC,[3],3.13
same,MIC,S. aureus ATCC-29213,3.13
same,MIC,E. faecalis MMX-3353,3.13
same,MIC,C. freundii CDC-0157,1.56
same,MIC,E. faecalis ATCC-29212,3.13
same,MIC,P. aeruginosa ATCC-27853,0.78
same,MIC,S. pyogenes ATCC-49399,0.78
same,MIC,[4],1.56
same,MIC,S. aureus ATCC -3591,6.25
same,MIC,A. baumannii ATCC-19606,1.56
same,MIC,S. agalactiae ATCC-13813,0.78
same,MIC,[5],0.78
same,MIC,E. coli ATCC-25922,0.78
same,MIC,C. striatum ATCC-6940,0.78
same,MIC,H. influenzae ATCC-49247,0.39
same,MIC,K. pneumoniae ATCC-43816,1.56
same,MIC,Escherichia coli (25922),1250 µg/mL
same,MIC,E. cloacae ATCC BAA-2468,1.56
same,MIC,[6],800 µg/mL
same,MIC,[7],1.56
same,MIC,M. morganii CDC-0519,1.56
same,MIC,E. faecium ATCC-35667,3.13
same,MIC,P. mirabilis CDC-0155,1.56
